Source: patent US20260297508A1, “MODULATORS OF PROTEIN SECRETION” (SANOFI, priority 2023, published 2026)

Tests used:
[1] = tested on: biotin-induced antibody release, U2OS clone #7 cells; experiment: Low-throughput validation by imaging of the biotin-induced antibody release (cytoplasmic GFP), clone #7; type: cell-based, human; conditions: FIG. 5C
Experimental: FIGS. 5A-5C show selection of potential enhancers of protein secretion. FIGS. 5A and 5B) show dot plot representations of drugs efficiency based on their Z-scores measured at low and high drug concentration (FIG. 5A, Prestwick library; FIG. 5B, ICCB Known Bioactives and TargetMol Autophagy libraries). Compounds selected for further characterization are listed. (FIG. 5C) Clone #7 was treated with the indicated compounds, fixed and analyzed as described in FIG. 4A legend.
FIG. 6A-6C show validation of enhancers of protein secretion.
(§1) U2OS clone #7 cells were seeded in black 384-well imaging plates (Greiner bio one), 2,000 cells/well, and incubated for 24 h at 37° C. in a humidified incubator with 5% CO2. Cells were treated on the next day with the compounds from either the Prestwick library at […], the ICCB Known Bioactives library at 1/100^e or 1/1000^e, or the autophagy compound library at 10 μM or 1 μM for 4 h. […] Cells were then fixed as described above and processed for subsequent automated image acquisition using a robot-assisted IXM XL BioImager (Molecular Devices, Sunnyvale, CA, USA) equipped with a Sola light source (Lumencor, Beaverton, OR, USA), adapted excitation and emission filters (Semrock) a 16-bit monochrome sCMOS PCO.edge 5.5 camera (PCO, Kelheim, Germany). A 20× PlanAPO objective (Nikon, Tokyo, Japan) was used to acquire a minimum of 4 view fields in each well. […] Nuclei were first detected using Hoechst 33342 signal and used as a marker to detect cytoplasmic areas based on GFP signal, allowing for the evaluation of cytoplasmic GFP intensity. Data were thereafter extracted and statistically evaluated using R (https://www.r-project.org). […]
Medium- and high-throughput screenings often yield false positive and negative hits, calling for independent validation in low-throughput experiments with orthogonal technologies. In a first round of experiments, we evaluated the effects of shortlisted compounds with potential antibody secretion enhancer activity. […]

[2] = tested on: RUSH antibody secretion, U2OS clone #7 cells; experiment: ELISA on immobilized PD-L1: RUSH antibody titer in supernatant of treated clone #7 cells; type: cell-based, human; conditions: 50 μg/mL; for inhibition of antibody secretion, validation: summary; for suppression of antibody secretion compared with brefeldin A: 4 h compound, biotin 30 min, FIG. 7A
Experimental: (§2) FIGS. 7A and 7B show validation of inhibitors of protein secretion. […] Clone #7 cells were treated with the indicated compounds and supernatants were assayed for PD-L1 binding. Brefeldin A was used as a protein secretion inhibitor positive control. […] Hoechst 33324 fluorescence was measured, which enabled to number adherent living cells in each well.
U2OS clone #7 cells were seeded in 6-well plates and kept for 24 h at 37° C. in a humidified incubator with 5% CO2. The next day, the supernatants were removed, cells were rinsed with 37° C. pre-heated PBS and new medium containing the chemical treatment was added for 4 h. […] Then supernatants were collected and used for the ELISA assay as follows. MaxiSorp 96-well plates (Thermo Fisher Scientific) were coated with 0.5 μg/mL hFc-human-PD-L1 (R&D Systems, Minneapolis, MN) in PBS for 5.5 h at RT. Coating solution was then removed and 2% BSA/PBS blocking solution was added overnight at 4° C. The next day, wells were washed 3 times with 0.5% BSA/0.05% Tween-20/PBS solution. Supernatants were added after a ⅓ dilution in 0.5% BSA/0.05% Tween-20/PBS, for 2.3 h at RT. Wells were washed 3 times with 0.5% BSA/0.05% Tween-20/PBS solution. Anti-human kappa light chain HRP-coupled antibody was added diluted in 0.5% BSA/0.05% Tween-20/PBS at 1/4000^e for 2.3 h at RT. Wells were washed 3 times with 0.5% BSA/0.05% Tween-20/PBS solution before incubation with substrate reagents pack (R&D Systems) for 15 min in the dark. Fifty μL of STOP solution (R&D Systems) were then added to each well and the absorbance in each well was subsequently measured at 450 nm, and 635 nm for background subtraction, using a VICTOR™ X4 (PerkinElmer, Waltham, MA).
Medium- and high-throughput screenings often yield false positive and negative hits, calling for independent validation in low-throughput experiments with orthogonal technologies. In a first round of experiments, we evaluated the effects of shortlisted compounds with potential antibody secretion enhancer activity. Compounds identified in the screening campaigns were tested again on clone #7 at a low concentration (FIG. 6A) or a ten-fold higher concentration (FIG. 6B) for their ability to increase antibody secretion. […] We further characterized these hits in an PD-L1 binding ELISA.

eryptosis; apoptosis = conditions: cited from earlier work
U2OS clone #7 cells = experiment: Toxicity assay: Hoechst staining, number of adherent living cells; type: cell-based, human; conditions: 50 μg/mL; FIG. 7B
Experimental: as §2
as §1, with “Germany).” for “Germany). A 20× PlanAPO objective (Nikon, Tokyo, Japan) was used to acquire a minimum of 4 view fields in each well.”

NLRP3 = conditions: cited from earlier work
[3] = tested on: biotin-induced antibody release, U2OS clone #7 cells; experiment: High-throughput RUSH screen: biotin-induced cytoplasmic GFP signal decay (antibody release), U2OS clone #7; type: cell-based, human; conditions: for inhibition of the biotin-induced decrease of the GFP signal: 4 h compound, then 40 μM biotin 1 h, screening; for retention of the RUSH antibody in the cytoplasm: screening campaigns, summary
Experimental: FIGS. 4A-4C show the high-throughput screening of chemical compound libraries for the identification of modulators of protein secretion. […] U2OS clone #7 is plated in 384-well plates and incubated for 24 h before treatment with each compound of the Prestwick, ICCB Known Bioactives, or Autophagy Compound Library at 2 concentrations, low and high (with a 10-fold difference). […] The results of the Prestwick library screening at the low drug concentration are plotted. Brefeldin A was used as a positive control of the inhibition of secretion. The compounds causing a cytoplasmic GFP intensity below that observed for biotin-only treated cells are potential enhancers of protein secretion.
U2OS cells were transfected with the streptavidin-KDEL plasmid using Lipofectamine 2000 (Thermo Fisher Scientific) and selected in medium supplemented with G418 (400 μg/mL, Gibco-Invitrogen) for 2 weeks. Limiting dilution in 96-well plates was used for single cell isolation from the selected pool. Clones were amplified and selected based on streptavidin immunofluorescence. Clone #BD6 showing the highest streptavidin expression was further expanded in medium supplemented with G418 (200 μg/mL) and transfected with the anti-PD-L1 IgG RUSH plasmid using Lipofectamine 2000 and selected in medium supplemented with G418 (200 μg/mL) and hygromycin (100 μg/mL, Santa Cruz Biotechnology) for 2 weeks. Limiting dilution in 96-well plates was used for single cell isolation from clone #BD6-derived selected pool. Clones were amplified and selected based on GFP fluorescence and clone #7 was selected for further characterization and screening campaigns.
U2OS clone #7 cells were seeded in black 384-well imaging plates (Greiner bio one), 2,000 cells/well, and incubated for 24 h at 37° C. in a humidified incubator with 5% CO2. Cells were treated on the next day with the compounds from either the Prestwick library at […], the ICCB Known Bioactives library at 1/100^e or 1/1000^e, or the autophagy compound library at 10 μM or 1 μM for 4 h. […] Cells were then fixed as described above and processed for subsequent automated image acquisition using a robot-assisted IXM XL BioImager (Molecular Devices, Sunnyvale, CA, USA) equipped with a Sola light source (Lumencor, Beaverton, OR, USA), adapted excitation and emission filters (Semrock) a 16-bit monochrome sCMOS PCO.edge 5.5 camera (PCO, Kelheim, Germany). A 20× PlanAPO objective (Nikon, Tokyo, Japan) was used to acquire a minimum of 4 view fields in each well. The acquired images were processed using the open-access R software (https://www.r-project.org) with the help of freely available packages EBImage (available on the Bioconductor repository https://www.bioconductor.org), and RBioFormats (https://github.com/aoles/RBioFormats), and the custom packages MetaxpR (https://github.com/asauvat/MetaxpR) and MorphR (https://github.com/kroemerlab/MorphR). Nuclei were first detected using Hoechst 33342 signal and used as a marker to detect cytoplasmic areas based on GFP signal, allowing for the evaluation of cytoplasmic GFP intensity. Data were thereafter extracted and statistically evaluated using R (https://www.r-project.org). Data were normalized using negative and positive controls, reduced and transformed into a Z-score. The experiments were repeated manually at low scale with selected drugs to confirm their effects on secretion, in this second set of assays, U2OS clone #7 cells incubated with secretion inhibitors were fixed and stained with Hoechst as described above for imaging and viability determination based on cell counts.
We next sought to use clone #7 in screening campaigns for the identification of drugs capable of enhancing or inhibiting antibody secretion. […] Cell counting was facilitated by nuclear counterstaining with Hoechst 33324 in order to assess viability and distinguish drug effects on the secretion kinetics from direct cytotoxicity and select relevant drugs for further characterization. […]

tyrosine kinase = tyrosine kinase inhibitor; cited from earlier work
TrKB = conditions: cited from earlier work
ErbB2 tyrosine kinase = conditions: ErbB2 vs EGFR; cited from earlier work
TrKC = conditions: cited from earlier work
TrKA = conditions: cited from earlier work

| Compound | effect on secretion by cell imaging [1] | inhibition of antibody secretion, validation [2] | suppression of antibody secretion compared with brefeldin A [2] | apoptosis (eryptosis; apoptosis) | eryptosis (eryptosis; apoptosis) | cellular viability (U2OS clone #7 cells) | NLRP3 activation, release of IL-1β (NLRP3) | inhibition of the biotin-induced decrease of the GFP signal [3] | retention of the RUSH antibody in the cytoplasm [3] | IC50 (tyrosine kinase) | inhibitory effect on TrKB (TrKB) | specificity to ErbB2 over EGFR (ErbB2 tyrosine kinase) | inhibitory effect on TrKC (TrKC) | inhibition of TrKA phosphorylation (TrKA) |
| --- | --- | --- | --- | --- | --- | --- | --- | --- | --- | --- | --- | --- | --- | --- |
| CO[C@@H]1C[C@@H](C[C@H]2CC[C@H](C)[C@H]([C@@H](C)C(=O)O)O2)O[C@]2(O[C@](C)([C@H]3CC[C@@](C)([C@@H]4O[C@@H]([C@H]5O[C@@](O)(CO)[C@H](C)C[C@@H]5C)C[C@@H]4C)O3)C[C@H]2C)[C@@H]1C [nigericin] | inhibitory effect | confirmed as a secretion inhibitor | as potent as brefeldin A in suppressing antibody secretion | triggers apoptosis | promote eryptosis | without affecting cellular viability | leading to the release of IL-1β | inhibited the biotin-induced cytoplasmic GFP signal decay | caused the retention of the RUSH antibody in the cytoplasm | – | – | – | – | – |
| CC(C)(C)c1cc(/C=C(\C#N)C(N)=S)cc(C(C)(C)C)c1O [tyrphostin AG-879] | inhibitory effect | validated as an inhibitor of antibody secretion | as potent as brefeldin A in suppressing antibody secretion | – | – | without affecting cellular viability | – | inhibited the biotin-induced cytoplasmic GFP signal decay | caused the retention of the RUSH antibody in the cytoplasm | 10 µM | no inhibitory effect | at least 500 fold | no inhibitory effect | effectively inhibits TrKA phosphorylation |
